Test results as given in ChEMBL document CHEMBL3259604, “Synthesis and anti-BVDV activity of novel δ-sultones in vitro: implications for HCV therapies” (Bioorg Med Chem Lett, 2014).

Tests used:
[1] = test system: Bovine viral diarrhea virus 1; test: Antiviral activity against BVDV AV-69 infected in MDBK cells assessed as cytopathic effect after 3 to 4 days by plaque reduction assay; format: functional, organism-based; conditions: Bovine viral diarrhea virus isolates and strains, AV-69, MDBK
[2] = Cytotoxicity against MDBK cells at 20 uM after 48 hrs by MTT assay; format: cell-based, Bos taurus; conditions: cattle
[3] = Cytotoxicity against MDBK cells after 48 hrs by MTT assay; format: cell-based, Bos taurus; conditions: cattle
[4] = test system: Bovine viral diarrhea virus 1; test: Ratio of ribavirin EC50 to compound EC50 for BVDV AV-69; format: functional

SMILES	EC50 [1] [nM]	Activity [2]	CC50 at 48 h [3] [µM]	Ratio EC50 [4]
CC12COS(=O)(=O)CC1=C(c1ccc(C(F)(F)F)cc1)C(=O)O2 (stereo not drawn)	> 1200	Non-toxic	–	–
Cc1ccc(C2=C3CS(=O)(=O)OCC3(C)OC2=O)cc1 (stereo not drawn)	> 1200	Non-toxic	–	–
CC12COS(=O)(=O)CC1=C(c1ccc(Cl)cc1)C(=O)O2 (stereo not drawn)	500	Non-toxic	–	–
CC12COS(=O)(=O)CC1=C(c1ccccc1)C(=O)O2 (stereo not drawn)	500	–	> 20	–
CC12COS(=O)(=O)CC1=C(c1ccccc1Br)C(=O)O2 (stereo not drawn)	120	–	> 20	10
CC12COS(=O)(=O)CC1=C(c1ccc(Br)cc1)C(=O)O2 (stereo not drawn)	1000	Non-toxic	–	–
COc1ccc(C2=C3CS(=O)(=O)OCC3(C)OC2=O)cc1 (stereo not drawn)	> 1200	–	–	–
CC12COS(=O)(=O)CC1=C(c1ccc(F)c(F)c1)C(=O)O2 (stereo not drawn)	> 1200	Non-toxic	–	–
CC12COS(=O)(=O)CC1=C(c1ccccc1F)C(=O)O2 (stereo not drawn)	500	–	> 20	–
CC12COS(=O)(=O)CC1=C(c1cccc(F)c1)C(=O)O2 (stereo not drawn)	1000	–	> 20	–
CC12COS(=O)(=O)CC1=C(c1ccc(F)cc1)C(=O)O2 (stereo not drawn)	> 1200	–	–	–
NC(=O)c1ncn([C@@H]2O[C@H](CO)[C@@H](O)[C@H]2O)n1 [RIBAVIRIN]	1300	–	> 20	–
